Data taken from PubChem BioAssay AID2060359 (Molecular Pharmacology Branch, DTP, NCI, 2025).

System: 276233-004-R-J1-PDC spheroids with HUVEC/MSC, viability
Assay: Anticancer human tumor 276233-004-R-J1-PDC patient-derived colon adenocarcinoma cell line growth inhibition [TAK]
Settings: for viability, T/C: stronger effect = lower value
Summary of the method: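 Tumor cells were grown as spheroids with HUVEC and hMSC (60:25:15) and treated with targeted agents combined with TAK-243 or ipatasertib. Drugs were tested in half-log steps down from near the clinical Cmax, or from 10 microM where Cmax was unknown.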

[1] = curve of first compound, second compound 0.3 µM
[2] = curve of first compound, second compound 0.949 µM
[3] = curve of first compound, second compound 3 µM
[4] = curve of first compound, second compound 9.49 µM
[5] = curve of first compound, second compound 30 µM
[6] = second compound 0.3 µM, first compound 0.00316 µM
[7] = second compound 0.3 µM, first compound 0.01 µM
[8] = second compound 0.3 µM, first compound 0.0316 µM
[9] = second compound 0.3 µM, first compound 0.1 µM
[10] = second compound 0.949 µM, first compound 0.00316 µM
[11] = second compound 0.949 µM, first compound 0.01 µM
[12] = second compound 0.949 µM, first compound 0.0316 µM
[13] = second compound 0.949 µM, first compound 0.1 µM
[14] = second compound 3 µM, first compound 0.00316 µM
[15] = second compound 3 µM, first compound 0.01 µM
[16] = second compound 3 µM, first compound 0.0316 µM
[17] = second compound 3 µM, first compound 0.1 µM
[18] = second compound 9.49 µM, first compound 0.00316 µM
[19] = second compound 9.49 µM, first compound 0.01 µM
[20] = second compound 9.49 µM, first compound 0.0316 µM
[21] = second compound 9.49 µM, first compound 0.1 µM
[22] = second compound 30 µM, first compound 0.00316 µM
[23] = second compound 30 µM, first compound 0.01 µM
[24] = second compound 30 µM, first compound 0.0316 µM
[25] = second compound 30 µM, first compound 0.1 µM
[26] = second compound 0.3 µM, first compound 0.000316 µM
[27] = second compound 0.3 µM, first compound 0.001 µM
[28] = second compound 0.949 µM, first compound 0.000316 µM
[29] = second compound 0.949 µM, first compound 0.001 µM
[30] = second compound 3 µM, first compound 0.000316 µM
[31] = second compound 3 µM, first compound 0.001 µM
[32] = second compound 9.49 µM, first compound 0.000316 µM
[33] = second compound 9.49 µM, first compound 0.001 µM
[34] = second compound 30 µM, first compound 0.000316 µM
[35] = second compound 30 µM, first compound 0.001 µM
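Also: spheroids exposed to drugs for seven days before the viability read.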

SMILES	IC50 [1] [nM]	IC50 [2] [nM]	IC50 [3] [nM]	IC50 [4] [nM]	IC50 [5] [nM]	viability, T/C [6] [%]	viability, T/C [7] [%]	viability, T/C [8] [%]	viability, T/C [9] [%]	viability, T/C [10] [%]	viability, T/C [11] [%]	viability, T/C [12] [%]	viability, T/C [13] [%]	viability, T/C [14] [%]	viability, T/C [15] [%]	viability, T/C [16] [%]	viability, T/C [17] [%]	viability, T/C [18] [%]	viability, T/C [19] [%]	viability, T/C [20] [%]	also measured
COc1c(OCCCN2CCOCC2)ccc2c3n(c(=NC(=O)c4cnc(N)nc4)nc12)CCN3 + CC(C)NCC(C(=O)N1CCN(c2ncnc3c2C(C)CC3O)CC1)c1ccc(Cl)cc1	31.3	29	26.4	21.5	< 3.16	74.1	78.6	49.7	41.8	67	59.8	51.5	36.3	66.8	53.3	46.8	46	60.5	48.3	52.5	viability, T/C (second compound 0.3 µM, first compound 0.316 µM): 43.7%; viability, T/C (second compound 0.3 µM, first compound 1 µM): 52.2%; viability, T/C (second compound 0.949 µM, first compound 0.316 µM): 37.6%; viability, T/C (second compound 0.949 µM, first compound 1 µM): 49.3%; viability, T/C (second compound 3 µM, first compound 0.316 µM): 41.5%; viability, T/C (second compound 3 µM, first compound 1 µM): 61.7%; viability, T/C [21]: 43%; viability, T/C (second compound 9.49 µM, first compound 0.316 µM): 44%; viability, T/C (second compound 9.49 µM, first compound 1 µM): 38.4%; viability, T/C [22]: 34%; viability, T/C [23]: 34.5%; viability, T/C [24]: 33.2%; viability, T/C [25]: 32.9%; viability, T/C (second compound 30 µM, first compound 0.316 µM): 25.9%; viability, T/C (second compound 30 µM, first compound 1 µM): 41.5%
COC1CC2CCC(C)C(O)(O2)C(=O)C(=O)N2CCCCC2C(=O)OC(C(C)CC2CCC(OCCO)C(OC)C2)CC(=O)C(C)C=C(C)C(O)C(OC)C(=O)C(C)CC(C)C=CC=CC=C1C (stereo not drawn) + CC(C)NCC(C(=O)N1CCN(c2ncnc3c2C(C)CC3O)CC1)c1ccc(Cl)cc1	> 100	> 100	> 100	> 100	> 100	75.9	79.3	67.5	71.3	81.9	70.5	68.3	58.4	57.4	68.2	54.9	57.9	49.1	53.6	51.4	viability, T/C [26]: 126%; viability, T/C [27]: 81.9%; viability, T/C [28]: 74.3%; viability, T/C [29]: 93.3%; viability, T/C [30]: 72.3%; viability, T/C [31]: 65.5%; viability, T/C [32]: 55.9%; viability, T/C [33]: 57.3%; viability, T/C [21]: 54.1%; viability, T/C [34]: 53.8%; viability, T/C [35]: 61%; viability, T/C [22]: 48.2%; viability, T/C [23]: 54.2%; viability, T/C [24]: 59%; viability, T/C [25]: 51.7%
CC(C)n1nc(-c2ccc3oc(N)nc3c2)c2c(N)ncnc21 + CC(C)NCC(C(=O)N1CCN(c2ncnc3c2C(C)CC3O)CC1)c1ccc(Cl)cc1	> 100	> 100	> 100	> 100	> 100	89.5	90.6	78.2	60.8	83.9	68.1	65.3	57.2	72.4	63.4	69.5	58.9	74.6	70.1	66.5	viability, T/C [26]: 112%; viability, T/C [27]: 98.7%; viability, T/C [28]: 104%; viability, T/C [29]: 84.9%; viability, T/C [30]: 84.7%; viability, T/C [31]: 81.8%; viability, T/C [32]: 74.8%; viability, T/C [33]: 77.1%; viability, T/C [21]: 60.1%; viability, T/C [34]: 61.4%; viability, T/C [35]: 64.7%; viability, T/C [22]: 59%; viability, T/C [23]: 64.5%; viability, T/C [24]: 78.5%; viability, T/C [25]: 59.7%
CC(C)NCC(C(=O)N1CCN(c2ncnc3c2C(C)CC3O)CC1)c1ccc(Cl)cc1 (stereo not drawn)																					viability, T/C (compound 0.949 µM): 84.7% [middle of 10 runs]; viability, T/C (compound 3 µM): 82.2% [middle of 10 runs]; IC50 (compound alone, run of 03/19/2020): > 30000 nM
